Reference: patent US20230140798A1, “SYNTHETIC PEPTIDES DIRECTED AGAINST THE METABOTROPIC GLUTAMATE RECEPTOR 5” (Lactocore, Inc., priority 2020, published 2023)
Entries after “also recorded” stand apart in the source; their conditions may differ.

Tests used:
Sprague-Dawley rats = assay: Modified Porsolt Forced Swim test (FST), rats; assay type: in vivo; details: i.p.; group name 5 mg/kg, test substance 20 mg/kg
Protocol: As part of this modification, two tests are carried out within two days. The installation is a transparent cylinder, 30 cm high, 10 cm in diameter and filled with water (water temperature 21° C.-23° C.) to a mark at a height of 25 cm. On the first day, each animal is placed in the apparatus for ten minutes. Behavioral parameters are not recorded. The animals are placed in the cylinder for 10 minutes again on the second day. The duration of active (vigorous movements with all paws) and passive (weak strokes with hind legs) swimming, as well as immobility (immobilization) (Porsolt et al. (1977) Behavioral despair in mice: a primary screening test for antidepressants. Arch Int Pharmacodyn Ther. 229(2):327-36) are recorded. After each test, the rats are placed in a heated cage until dry. The behavioral indicators in this test are processed using the Real Timer Program developed by Open Science. The sequence of events, their duration, as well as conduct basic statistical data processing are recorded.

human mGluR5 = target: T1, human mGluR5 (Homo sapiens, UniProt P41594); assay: Sodium glutamate-evoked [Ca^2+] responses in CHO-mGluR5 cells (calcium-flux imaging); assay type: cell-based
T1 construct: expressed in transfected cells; host or cells: CHO cells carrying pcDNA6/TR (T-REx system)
T1 sequence (P41594 21-1212): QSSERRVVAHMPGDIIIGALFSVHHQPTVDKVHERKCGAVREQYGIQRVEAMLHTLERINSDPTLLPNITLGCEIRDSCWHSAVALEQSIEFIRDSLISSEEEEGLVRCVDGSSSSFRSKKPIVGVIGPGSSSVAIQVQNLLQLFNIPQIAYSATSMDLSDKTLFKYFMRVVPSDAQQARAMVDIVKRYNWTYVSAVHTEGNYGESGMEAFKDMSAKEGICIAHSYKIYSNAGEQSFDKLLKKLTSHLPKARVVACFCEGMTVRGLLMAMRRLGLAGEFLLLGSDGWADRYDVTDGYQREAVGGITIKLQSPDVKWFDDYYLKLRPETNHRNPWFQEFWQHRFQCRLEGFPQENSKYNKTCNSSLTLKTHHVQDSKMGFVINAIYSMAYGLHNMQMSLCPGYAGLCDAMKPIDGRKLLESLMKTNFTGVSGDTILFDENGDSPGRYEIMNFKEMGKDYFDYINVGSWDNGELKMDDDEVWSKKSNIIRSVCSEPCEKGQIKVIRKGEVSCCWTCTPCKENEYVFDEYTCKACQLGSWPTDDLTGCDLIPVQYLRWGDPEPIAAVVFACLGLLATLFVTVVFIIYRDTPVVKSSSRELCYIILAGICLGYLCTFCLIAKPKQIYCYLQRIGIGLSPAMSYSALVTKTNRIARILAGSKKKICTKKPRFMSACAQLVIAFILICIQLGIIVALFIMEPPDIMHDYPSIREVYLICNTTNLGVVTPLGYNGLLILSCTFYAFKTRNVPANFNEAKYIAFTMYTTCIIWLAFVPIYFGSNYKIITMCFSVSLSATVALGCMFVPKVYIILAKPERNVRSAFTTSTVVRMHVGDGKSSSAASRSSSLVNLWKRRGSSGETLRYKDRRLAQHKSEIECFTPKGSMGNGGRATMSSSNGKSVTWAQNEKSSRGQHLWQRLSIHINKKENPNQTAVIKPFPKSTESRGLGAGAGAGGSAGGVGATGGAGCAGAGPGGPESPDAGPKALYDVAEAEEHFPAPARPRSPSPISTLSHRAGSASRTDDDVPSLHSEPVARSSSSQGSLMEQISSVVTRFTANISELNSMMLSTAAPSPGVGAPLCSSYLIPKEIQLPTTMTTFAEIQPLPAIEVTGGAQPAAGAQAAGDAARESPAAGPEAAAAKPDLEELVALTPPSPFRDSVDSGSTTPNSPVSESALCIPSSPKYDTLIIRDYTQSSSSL
Excerpt: CHO-mGluR5 cells with tetracycline-induced stable expression of human mGluR5.
The CHO cell line stably expressing human mGluR5 was generated using T-Rex System (Thermo Fisher Scientific Inc., Waltham, Mass., USA) according to the manufacturer's' instructions. Briefly, cDNA encoding human mGluR5 was subcloned into inducible expression vector pcDNA4/TO and was transfected into CHO cells carrying regulatory vector pcDNA6/TR that expresses the tetracycline repressor. After 2 weeks of selection using Blasticidin (5 µg/ml) and zeocin (250 µg/ml), pools of cells were screened for the expression of mGluR5 in the agonist-induced [Ca^2+] uptake assay. Positive cells were expanded and used. mGluR5 expression was induced by adding tetracycline (up to 1 µg/ml) 16 h before testing.
Fluorescent assays were performed using NOVOstar (BMG LABTECH, Ortenberg, Germany). CHO-mGluR5 cells were seeded into black-walled clear-bottomed 96-well plates at a density of 75,000 cells per well (complete media without antibiotics and containing 1 µg/ml of tetracycline to induce receptor expression) and were cultured overnight at 37° C. […] After a 3-min incubation at 37° C., changes in cell fluorescence ([…]) were monitored before and after the addition of the mGLuR5 agonist (1 mM sodium glutamate—Glu-Na). […]

Wistar rats [1] = assay: Dexamethasone test (DXMT), serum corticosterone, AFS model; assay type: in vivo; details: 4.5 mg/kg i.p. daily, after AFS; DXM 10 μg/kg
Protocol: (§1) Stimulation was performed automatically using a software randomizer.
Evaluation of the stress-evoked release of glucocorticoid hormones (corticosterone, an analog of cortisol in humans) and its suppression by the introduction of synthetic glucocorticosteroid was performed on the 9-10th day after the development of LH in a two-day dexamethasone test according to the scheme, taking into account the specificity of the circadian rhythm of HPA axis function in rats (Zhukov (1993). The dexamethasone suppression test in genetically different rats exposed to inescapable and escapable electric shocks. Psychoneuroendocrinology, 18(7), 467-474.].
On the first day of the test (DXMT1) at 10:00 AM, animals were injected (i.p.) with saline, then at 04:00 PM on the same day peripheral blood samples were taken to determine the basal level of the hormone, which caused stress, and 30 minutes after taking the rat from the cage and receiving initial sample, re-taken blood to measure hormone stress level.
To study the sensitivity of the HPA system to feedback signals, rats were injected with dexamethasone (DXM, 10 μg/kg, i.p.) the next day (DXMT2) at 10 AM. The procedure for taking blood from the tail vein was repeated after 6 and 6.5 hours. The corticosterone content was determined by enzyme-linked immunosorbent assay with reagent kits “Corticosterone-ELISA” (“Hema”, RF) in two parallel samples.

Wistar rats [2] = assay: Elevated Plus Maze test in Acute Foot Shock (AFS) stress model; assay type: in vivo
Protocol: (§2) KEDV (SEQ ID NO: 4) and RAHE (SEQ ID NO: 3) (Lactocore Inc.) were administered intranasally (i.n), daily for 10 days at a dose of 1 mg/kg and 5 mg/kg. Peptides were prepared freshly each day in saline. The solution for i.n. administration of 5 mg/kg in a volume of 15 μl (single administration) contained 1.3 mg KEDV (SEQ ID NO: 4) or RAHE (SEQ ID NO: 3), and a solution for intranasal administration of 1 mg/kg in a volume of 10 μl (single administration) contained 0.26 mg KEDV (SEQ ID NO: 4) or RAHE (SEQ ID NO: 3).
(§3) The tetracyclic antidepressant Maprotiline (MAP, “Lyudiomil”), was used as a drug of comparison. Animals received a daily intraperitoneal injection (i.p) of MAP for ten days (M9651, Merck, in a dose of 4.5 mg/kg, dissolved in saline, 250 μl per administration).
as §1
EPM testing allows characterizing the behavior of rodents under the variable stress conditions, which makes it possible to assess the level of animal anxiety and anxiolytic effects of drugs. On the 6th day after the experimental exposure, the rats were tested one at a time for 5 min in the EPM installation, located at a height of 75 cm above the floor, and consisting of 2 open illuminated and 2 closed arms with exits. The time spent by the animal inside and outside the closed arms (in the open arms and in the center), the number of transitions between the arms, the number of stretch-attended postures were evaluated. Usually, animals tend to stay in the closed arms, anxiolytic treatment results in an increment of the time spent on the open arms of the maze (Pellow et al. (1985). Validation of open: closed arm entries in an elevated plus-maze as a measure of anxiety in the rat. J. Neurosci. Methods, 14(3), 149-167; Walf et al. (2007). The use of the elevated plus maze as an assay of anxiety-related behavior in rodents. Nat. Protoc., 2(2), 322-328).

Wistar rats [3] = assay: Open Field test in Acute Foot Shock (AFS) stress model; assay type: in vivo; details: 4.5 mg/kg i.p. daily for ten days after AFS
Protocol: as §2, §3, §1
The OF test is a classic method for assessing the level of motor activity and exploratory behavior of rodents in new stressogenic conditions. The test was performed in a cage of 90×90×45 cm without a roof, the floor of which was laid out on squares 15×15 cm and lit from above by a 60 W lamp. On the 5th day after stressing in the LH model, the rat was placed in the center of the OF. The following parameters were measured for 5 minutes: latency to start of moving, the number of crossed squares, the duration of rears and freezing.

mGluR5 (GRM5) = assay: HEK 293 cells mGluR5-luciferase reporter assay (β-arrestin2 recruitment); assay type: cell-based, human; details: + 1 mM CHPG
Excerpt: The methodology was previously described by Kroeze (Kroeze et al. (2015). PRESTO-Tango as an open-source resource for interrogation of the druggable human GPCRome. Nat. Struct. Mol. Biol. 22(5): 362) and the principle is illustrated in FIG. 19. Briefly, the cells of HEK293 cell line are transfected with 3 types of plasmids:
Plasmid 1: encodes fusion GRMS-tTA protein. The linker between GRMS and tTA is sensitive to TEV-protease (www.addgene.org/66390/).
Plasmid 2: encodes β-arrestin2/TEV-protease fusion protein (www.addgene.org/107245/).
Plasmid 3: luciferase tTA reporter (www.addgene.org/64127/).
Sufficient quantities of fusion proteins were produced during 24 hours after transfection. mGluR5 (GRM5) activation by a selective agonist CHPG (SEQ ID NO: 18) (1) leads to recruiting of β-arrestin2/TEV-protease fusion protein (2), that cleaves the linker between GRM5 and tTA (3). Released tTA transcription factor (4) binds with its consensus sites in tTA luciferase reporter plasmid (5) that results in activation of luciferase expression. The activity of luciferase can be used to estimate the activity of mGluR5, and application of negative allosteric modulators of mGluR5 should lead to a dose-dependent decrease in luciferase activity in this system (FIG. 19).
Sufficient quantities of the plasmids were produced using standard applications before the experiment. HEK293 cells were co-transfected with three plasmids using polyethylenimine (PEI, 408727, Sigma-Aldrich, USA) 24 hours prior to agonists application. Transfected cells were treated with agonists/antagonists and incubated overnight (16 hours). Antagonists were introduced 10 minutes prior to agonists. Luciferase test was performed using Promega™ Luciferase Assay Systems Kit (PR-E1500, Promega, USA) according to the manufacturer's protocol.
CHPG—orthosteric selective mGlu5 receptor agonist (HB0033, HelloBio, USA). […]

[4] = MAP 4.5 mg/kg i.p., AFS, overall median 0.00

**Q.** With `CNCCC(Oc1ccc(C(F)(F)F)cc1)c1ccccc1` (stereo not drawn) [Fluoxetine, fluoxetine] as the molecule, how does the “antidepressant-like properties in FST” value (Sprague-Dawley rats) read?
**A.** not observed

**Q.** Which “intracellular [Ca^2+] levels vs buffer” value (human mGluR5; 1 mM, CHO-mGluR5 cells) does the source give for `N[C@@H](CCC(=O)[O-])C(=O)[O-].[Na+].[Na+]` [GluNa, sodium glutamate] here?
**A.** elevated intracellular [Ca^2+] levels

**Q.** `CNCCCC12CCC(c3ccccc31)c1ccccc12` [MAP, Maprotiline] was tested. Which “suppression of stress CS levels in serum by DXM” value (Wistar rats [1]) did it give?
**A.** more than 50%

**Q.** What about the “proportion of animals that went to the open arms of the maze” value (Wistar rats [2]; 4.5 mg/kg i.p. daily, after AFS) of the same molecule?
**A.** 78%

**Q.** And the “time in open arms <=Median: obs. − exp.” value (Wistar rats [2]; MAP 4.5 mg/kg i.p., AFS)?
**A.** −2.86

**Q.** What about the “time in open arms >Median: obs. − exp.” value (Wistar rats [2]; MAP 4.5 mg/kg i.p., AFS) of the same molecule?
**A.** 2.86

**Q.** What about the “time in open arms <=Median: observed (animals)” value (Wistar rats [2]; [4]) of the same molecule?
**A.** 2.00

**Q.** And the “time in open arms >Median: observed (animals)” value (Wistar rats [2]; [4])?
**A.** 7.00

**Q.** And the “freezing behavior vs stressed saline-treated animals” value (Wistar rats [3])?
**A.** significant reduction of freezing behavior

**Q.** Which “effect on GluNa-induced activation” value (human mGluR5; pre-treatment 0.1, 1, 10, 100 μM, 1 mM GluNa) does the source give for `Cc1cccc(C#Cc2ccccc2)n1` [MPEP, 2-methyl-6-(phenylethynyl)-pyridine] here?
**A.** abolished GluNa-induced activation

**Q.** Which results are given for `Cc1ccc(O)c(N=Nc2ccccc2)n1` [SIB 1757]?
**A.** effect on CHPG-induced mGluR5 activity (luciferase signal) (mGluR5 (GRM5); 10 μM): inhibition of mGluR5 activity; also recorded: significant decrease of luciferase signal; effect on CHPG-induced mGluR5 activity (luciferase signal) (mGluR5 (GRM5); 100 μM): inhibition of mGluR5 activity
